Measured values: article PMC7312375, “A Novel, Pan-PDE Inhibitor Exerts Anti-Fibrotic Effects in Human Lung Fibroblasts via Inhibition of TGF-β Signaling and Activation of cAMP/PKA Signaling” (International Journal of Molecular Sciences, 2020)

Experiments:
MRC-5 cells [1] = experiment: FBS-induced MRC-5 proliferation, alamarBlue assay; format: cell-based, human; conditions: for inhibition at 50 µM: Homo sapiens, MRC5, read-out: inhibition of FBS-induced MRC-5 proliferation rate; for MRC-5 proliferation [% of control]: Table S1 (Figure 2B), 48 h with FBS
Description: The normal human lung fibroblast cell line—MRC-5 (ATCC® CCL-171™, Manassas, VA, USA)—was used in the study. Cells were cultured in Eagle’s Minimum Essential Medium (EMEM, ATCC® 30-2003™, Manassas, VA, USA) supplemented with 10% (v/v) fetal bovine serum (FBS; Gibco, Thermo Fisher Scientific, Waltham, MA, USA) and antibiotics mixture (penicillin, streptomycin, amphotericin B; Gibco, Thermo Fisher Scientific, Waltham, MA, USA) (standard culture medium) in standard culture conditions (5% CO2, 37 °C, 95% humidity). Unless otherwise specified, for the experiments, cells were seeded at a final density (5 × 10^3/cm^2) in standard culture medium for 24 h and then cultured in EMEM at reduced serum content (0.5%; v/v) for additional 24 h. TGF-β1 (BD Biosciences, San Jose, CA, USA) was administered at 5 ng/mL concentration in all experiments.
MRC-5 cell viability was evaluated using CytoTox-ONE™ Homogeneous Membrane Integrity Assay (Promega Corporation, Madison, WI, USA) according to the manufacturer’s protocol. The average fluorescence intensity with an excitation wavelength of 560 nm and an emission wavelength of 590 nm was measured using a microplate reader (SpectraMax® iD3, Molecular Devices, San Jose, CA, USA). Experiments were run three times in duplicates. MRC-5 proliferation was determined using the alamarBlue® assay. Cells were seeded for 24 h in standard culture medium, then serum-starved for an additional three days. Evaluated compounds (1-50 µM) were added 1 h prior FBS (10%, v/v) for an additional 48 h. After incubation, the alamarBlue® reagent (Invitrogen, Life Technologies, Carlsbad, CA, USA), dissolved in Hank’s Balanced Salt Solution (10% v/v; Gibco, Thermo Fisher Scientific, Waltham, MA, USA), was added for 30 min. After the observed color change, the supernatant was transferred to 96-well plates, and the absorbance was measured at 570 and 600 nm. The percent difference in reduction between treated and control cells was calculated according to the manufacturer’s protocol. The experiments were run three times in duplicates.

MRC-5 cells [2] = experiment: Intracellular calcium measurements (Fluo-4); format: cell-based, human; conditions: 10 µM, acute application
Description: MRC-5 cells were briefly washed with NaHEPES buffer (NaHEPES buffer was prepared as follows: NaCl 140 mM, KCl 4.7 mM, HEPES 10 mM, MgCl2 1 mM, glucose 10 mM; pH 7.3) and then loaded with 1 µM Fluo-4 AM (Thermo Fisher Scientific, Waltham, MA, USA) for 1 h, 37 °C in NaHEPES. After the incubation, the cells were washed again with fresh NaHEPES and used for experiments in a flow chamber perfused with NaHEPES-based extracellular solution supplemented with 1 mM CaCl2. All experiments were carried out at room temperature using Zeiss LSM 880 confocal microscope (40× oil objective), excitation was set to 488 nm, and the emission was between 500 and 600 nm. Each series of images was recorded at 256 × 256-pixel resolution, two consecutive frames were averaged, and the interval between the averaged images was set at 2 s. Fluorescence signals were plotted as F/F0, where F0 was baseline fluorescence defined as the averaged signal from ten consecutive baseline images.

[3] = test system: TGF-β1-induced MRC-5 cells; experiment: Immunofluorescence, nuclear localization of p-CREB; format: cell-based, human; conditions: 10 µM
Description: (§1) For immunocytochemical labeling, MRC-5 cells were seeded on glass coverslips. Study compounds (10 µM) were added 1 h before TGF-β1 treatment, and analysis was performed after 1 h (p-Smad-2 and p-CREB detection) or 48 h (α-SMA detection) of incubation. Cells were fixed in methanol or 4% formaldehyde solution, permeabilized in 0.2% or 0.1% Triton X-100 solution (for p-Smad-2 and p-CREB or α-SMA, respectively). After incubation in blocking solution the following primary antibodies: rabbit polyclonal, anti-phospho-Smad-2 (Ser465, Ser467) antibody (#44-244G, Thermo Fisher Scientific, Waltham, MA, USA); rabbit polyclonal, anti-phospho-CREB1 (Ser133) antibody (#orb213775, Biorbyt, Cambridge, United Kingdom); mouse monoclonal, anti-α-SMA antibody (#MA5-11547, Thermo Fisher Scientific, Waltham, MA, USA) and secondary antibodies: goat anti-rabbit Alexa Fluor 546 conjugated antibody and goat anti-mouse Alexa Fluor 488 conjugated antibody (#A-11010 and #A-11001, respectively, Invitrogen, Carlsbad, CA, USA) were used. Nuclei were counterstained with Hoechst 33342 dye (Thermo Fisher Scientific, Waltham, MA, USA). Slides were mounted in ProLong™ Glass Antifade Mountant (Invitrogen, Carlsbad, CA, USA) and analyzed using Leica DMiL LED Fluo microscope (for α-SMA and p-CREB visualization, 40× objective) or Leica DMi8 with Thunder Imaging System (for p-Smad-2 visualization, 40× objective), all equipped with LAS-X Software (Leica Microsystems GmbH, Wetzlar, Germany). Experiments were run four times using five randomly selected fields of view, at the same fluorescent time exposure and in a blind-folded manner.

TRPA1 = molecular target: T1, TRPA1 (Homo sapiens, UniProt O75762); experiment: TRPA1 antagonist FLIPR assay (functional, HEK293 cell-based)
T1 construct: host or cells: HEK293
Description: The TRPA1 agonist and antagonist fluorescent imaging plate reader (FLIPR) Assay (functional, HEK293 cell-based) was performed at Eurofins Panlabs, Inc. (St. Charles, MO, USA). The compounds were prepared in assay buffer to the final dilutions 10 and 50 µM. In each experiment, the respective reference compounds were tested: allyl isothiocyanate (the agonist assay) and ruthenium red (the antagonist assay). The […] assays were conducted on a FLIPR^TETRA instrument where the test compounds, vehicle controls, and reference agonists or antagonists were added to the assay plate after a fluorescence baseline was established. The agonist or antagonist incubation during the assay was for a total of 180 s and was used to assess each compound’s ability to activate or inactivate TRPA1. All plates were subjected to appropriate baseline corrections. Once baseline corrections were processed, maximum fluorescence values were exported, and data was manipulated to calculate percentage activation or percentage inhibition. Results showing activity greater than 25% were considered to represent significant effects of test compounds. Experiments were run three times, […].

[4] = test system: TGF-β1-induced MRC-5 cells; experiment: Protein kinase A activity; format: cell-based, human; conditions: 10 µM 30 min, then TGF-β1 30 min
Description: Protein Kinase A (PKA) activity in MRC-5 cells was determined using a PKA Colorimetric Activity Kit (Invitrogen, Carlsbad, CA, USA) according to the manufacturer’s protocol. MRC-5 cells were seeded in standard culture medium, and after 48 h they were serum-starved for 2 h in HBSS, followed by the addition of study compounds (10 µM) and incubation for 30 min. Finally, TGF-β1 was administered, and the samples were incubated for an additional 30 min. Whole cell lysates were used in the assay. The amount of PKA was normalized to the total protein content in each sample. The experiments were run two times in duplicates.

[5] = test system: TGF-β1-induced MRC-5 cells; experiment: Western blot of p-Smad-2; format: cell-based, human; conditions: 10 µM, 1 h pre-incubation, TGF-β1 5 ng/mL 1 h
Description: Western Blot analysis was performed according to a standard protocol. Briefly, MRC-5 cells were pre-incubated with the study compounds (10 µM) for 1 h, […] (RIPA Lysis and Extraction Buffer, Thermo Fisher Scientific, Waltham, MA, USA) and supplemented with protease inhibitor cocktail and phosphatase inhibitor cocktail (both from Sigma Aldrich, St. Louis, MO, USA). Equal amounts of protein (30 µg) were separated using 10% SDS-polyacrylamide gels and transferred onto polyvinylidene difluoride (PVDF) membranes (Thermo Fisher Scientific, Waltham, MA, USA). Then membranes were washed with Tris Buffered Saline with Tween 20 (TBST) buffer (150 mM NaCl, 50 mM Tris, 0.05% Tween 20), blocked with 5% skim milk in TBST and incubated overnight with the appropriate primary antibody: rabbit, polyclonal anti-SMAD2 antibody, dilution 1:250, #51-1300 and rabbit, polyclonal anti-phospho-SMAD2 (Ser465, Ser467) antibody, dilution 1:500, #44-244G (both from Thermo Fisher Scientific, Waltham, MA, USA); rabbit, polyclonal anti-CREB1 antibody, dilution 1:500, #orb213777 and rabbit, polyclonal anti-phospho-CREB1 (Ser133) antibody, dilution 1:500, #orb213775 (both from Biorbyt LLC, San Francisco, CA, USA); mouse monoclonal anti-GAPDH antibody, dilution 1:5000, #G8795 (Sigma Aldrich, St. Louis, MO, USA). The next day, after gentle rising, membranes were exposed to secondary, rabbit anti-mouse IgG (whole molecule) peroxidase antibody (#A9044, dilution 1:3000, Sigma Aldrich, St. Louis, MO, USA) and goat anti-rabbit IgG (H+L) peroxidase-conjugated antibody (#32460, dilution 1:3000, Thermo Fisher Scientific, Waltham, MA, USA). Blots were visualized using a chemiluminescence method (Clarity Max™ Western ECL Substrate—Peroxide Solution, BioRad, Hercules, CA, USA) with a C-DiGit® Blot Scanner (LI-COR Biosciences, Lincoln, NE, USA). ROD was measured according to the NIH guidelines with Fiji ImageJ Software. The experiments were run four times.

[6] = test system: TGF-β1-induced MRC-5 cells; experiment: Immunofluorescence count of α-SMA positive myofibroblasts; format: cell-based, human; conditions: 10 µM, 48 h TGF-β1 5 ng/mL
Description: as §1

T1 sequence (O75762 whole entry, species assumed): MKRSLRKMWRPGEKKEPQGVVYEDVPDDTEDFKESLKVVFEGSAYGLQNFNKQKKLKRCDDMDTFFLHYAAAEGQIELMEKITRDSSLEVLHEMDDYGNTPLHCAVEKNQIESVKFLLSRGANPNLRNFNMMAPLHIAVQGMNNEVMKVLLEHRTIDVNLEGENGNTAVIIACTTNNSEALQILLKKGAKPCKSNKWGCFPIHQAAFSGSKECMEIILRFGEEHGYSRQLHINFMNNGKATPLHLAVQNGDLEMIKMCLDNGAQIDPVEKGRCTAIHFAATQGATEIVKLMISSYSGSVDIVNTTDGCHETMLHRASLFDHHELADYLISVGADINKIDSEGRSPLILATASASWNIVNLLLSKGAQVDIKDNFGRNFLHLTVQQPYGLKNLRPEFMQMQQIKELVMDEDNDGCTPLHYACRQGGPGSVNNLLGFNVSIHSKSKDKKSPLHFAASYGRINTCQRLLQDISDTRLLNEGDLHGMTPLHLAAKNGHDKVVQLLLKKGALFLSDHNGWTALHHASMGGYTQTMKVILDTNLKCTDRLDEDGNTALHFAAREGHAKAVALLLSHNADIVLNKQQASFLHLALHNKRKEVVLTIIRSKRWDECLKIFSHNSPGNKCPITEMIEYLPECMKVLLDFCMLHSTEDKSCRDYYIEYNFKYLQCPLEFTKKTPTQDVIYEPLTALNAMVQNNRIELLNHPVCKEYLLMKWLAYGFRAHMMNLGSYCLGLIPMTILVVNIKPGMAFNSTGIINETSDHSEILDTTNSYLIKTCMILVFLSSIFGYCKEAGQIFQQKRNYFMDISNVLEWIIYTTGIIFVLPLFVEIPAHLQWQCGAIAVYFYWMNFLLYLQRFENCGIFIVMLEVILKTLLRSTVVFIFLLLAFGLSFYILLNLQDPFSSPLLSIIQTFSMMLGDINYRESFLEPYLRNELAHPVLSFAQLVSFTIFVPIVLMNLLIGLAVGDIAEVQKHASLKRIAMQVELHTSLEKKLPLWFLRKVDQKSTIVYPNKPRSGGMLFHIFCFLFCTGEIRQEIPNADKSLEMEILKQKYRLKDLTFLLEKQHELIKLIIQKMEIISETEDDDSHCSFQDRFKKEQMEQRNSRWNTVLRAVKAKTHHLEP

Row | TRPA1 Inhibition (% of control) (TRPA1; 10 µM) | TRPA1 Inhibition (% of control) (TRPA1; 50 µM) | SMILES | inhibition at 50 µM (MRC-5 cells [1]; 50 µM) | MRC-5 proliferation [% of control] (MRC-5 cells [1]; 1 µM) | MRC-5 proliferation [% of control] (MRC-5 cells [1]; 5 µM) | MRC-5 proliferation [% of control] (MRC-5 cells [1]; 10 µM) | MRC-5 proliferation [% of control] (MRC-5 cells [1]; 15 µM) | MRC-5 proliferation [% of control] (MRC-5 cells [1]; 20 µM) | MRC-5 proliferation [% of control] (MRC-5 cells [1]; 50 µM) | increase in average Ca2+ response area over baseline (MRC-5 cells [2]) | elevation of fraction of MRC-5 cells with nuclear p-CREB localization [3] | Protein kinase A activity in TGF-β1-induced fibroblasts [4] | TGF-β1-induced Smad-2 phosphorylation (immunoblot) [5] | number of myofibroblasts (MRC-5 with α-SMA-positive stress fibers); fibroblast to myofibroblast transition [6]
1 | – | – | CC(C)CN1C(=O)/C(=C/C(=O)O)c2cccc(F)c21 [ASP 7663, (E)-2-(7-fluoro-1-isobutyl-2-oxoindolin-3-ylidene)acetic acid, reference compound] | 14% | 99 % of control | 97 % of control | 96 % of control | 92 % of control | 89 % of control | 86 % of control | 10 fold | – | – | – | –
2 | 91.8 % of control | 98.8 % of control | CC(C)c1ccc(NC(=O)Cn2cnc3c2c(=O)n(C)c(=O)n3C)cc1 [HC-030031, 2-(1,3-dimethyl-2,6-dioxo-1,2,3,6-tetrahydro-7H-purin-7-yl)-N-(4-isopropylphenyl)acetamide, reference compound] | 15% | 98 % of control | 96 % of control | 95 % of control | 90 % of control | 90 % of control | 85 % of control | – | only a slight increase | no significant change | no differences | did not show any significant effect
